{
  "source": "patent US11352382B2",
  "about": "“Mito-lonidamine, compositions and methods of use” (THE MEDICAL COLLEGE OF WISCONSIN, INC., priority 2018, dated 2022)",
  "key": {"Pancreatic cancer cells": {"test_system": "Pancreatic cancer cells", "test": "Anti-proliferative effects in pancreatic cancer cells (number of cells over time)", "type": "cell-based, human", "description": "Pancreatic cancer cells were treated with either LND or Mito-LND at varying concentrations and the number of cells was assayed over time."}, "mitochondrial complex II": {"molecular_target": "T1, mitochondrial complex II (Homo sapiens, UniProt O14521+P21912+P31040+Q99643)", "T1 construct": "we measured the activity of mitochondrial complexes in H2030BrM3 cells (NSCLC cell line); endogenous in cells; host or cells: H2030BrM3", "T1 sequence (P31040 43-664)": "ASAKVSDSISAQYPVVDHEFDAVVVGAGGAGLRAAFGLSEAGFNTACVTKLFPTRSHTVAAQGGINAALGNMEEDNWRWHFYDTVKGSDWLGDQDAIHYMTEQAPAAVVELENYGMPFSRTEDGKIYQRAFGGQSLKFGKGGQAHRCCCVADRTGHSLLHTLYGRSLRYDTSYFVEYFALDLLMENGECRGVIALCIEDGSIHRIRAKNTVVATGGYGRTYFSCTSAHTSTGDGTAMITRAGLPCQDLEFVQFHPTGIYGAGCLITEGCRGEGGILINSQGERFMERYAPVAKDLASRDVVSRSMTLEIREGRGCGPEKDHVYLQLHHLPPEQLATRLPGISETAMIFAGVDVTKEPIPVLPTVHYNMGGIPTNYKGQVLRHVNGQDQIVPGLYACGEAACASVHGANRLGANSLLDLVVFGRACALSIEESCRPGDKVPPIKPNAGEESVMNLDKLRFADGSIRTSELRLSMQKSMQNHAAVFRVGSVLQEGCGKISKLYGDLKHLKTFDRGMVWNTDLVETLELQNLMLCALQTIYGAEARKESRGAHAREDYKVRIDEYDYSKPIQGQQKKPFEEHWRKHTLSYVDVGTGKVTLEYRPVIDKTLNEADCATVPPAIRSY", "T1 sequence (P21912 29-280)": "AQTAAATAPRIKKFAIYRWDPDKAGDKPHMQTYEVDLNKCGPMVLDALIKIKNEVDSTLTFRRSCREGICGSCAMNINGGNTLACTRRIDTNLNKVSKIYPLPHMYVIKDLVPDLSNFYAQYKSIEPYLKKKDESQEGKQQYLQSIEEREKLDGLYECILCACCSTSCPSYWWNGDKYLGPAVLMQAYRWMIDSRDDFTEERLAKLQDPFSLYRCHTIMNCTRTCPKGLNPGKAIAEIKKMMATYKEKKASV", "T1 sequence (Q99643 30-169)": "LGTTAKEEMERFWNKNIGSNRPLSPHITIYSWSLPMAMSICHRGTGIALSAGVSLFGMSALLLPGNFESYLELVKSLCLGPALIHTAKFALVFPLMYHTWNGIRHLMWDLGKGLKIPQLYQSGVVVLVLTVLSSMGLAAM", "T1 sequence (O14521 57-159)": "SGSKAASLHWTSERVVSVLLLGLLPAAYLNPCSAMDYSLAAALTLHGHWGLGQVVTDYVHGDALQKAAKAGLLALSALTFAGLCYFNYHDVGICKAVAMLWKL", "test": "Mitochondrial complex II activity (OCR) in permeabilized H2030BrM3 cells after 24 h pretreatment", "type": "cell-based", "text": "LON and Mito-LON inhibit mitochondrial complex I activity. Mito-LON inhibited cellular respiration (oxygen consumption rate, OCR) at >100-fold lower concentration than LON in intact lung cancer cells (FIG. 9). Both basal respiration and the response to mitochondrial stressors (oligomycin, dinitrophenol) were diminished by Mito-LON (not shown). To investigate the mechanism of mitochondrial inhibition, we measured the activity of mitochondrial complexes in H2030BrM3 cells (NSCLC cell line). The cell membrane was permeabilized, and OCR was measured upon addition of substrates and inhibitors of mitochondrial complexes I-IV (FIG. 9A). These studies established the optimal use of permeabilized cells for complex activity assays.^54 Next, cells were pretreated with LON and Mito-LON for 24 h and experiments performed as in FIG. 9A. […] We hypothesize that inhibition of mitochondrial complexes I and II is the predominant mechanism for antiproliferative effects of Mito-LON on lung cancer cells."}, "H2030BrM3 cells": {"test_system": "H2030BrM3 cells", "test": "Cellular ROS production, HPLC-based analysis of hydroethidine (HE) oxidation", "type": "cell-based, human", "details": "for ROS generation in lung cancer cells: concentration not given", "text": "Inhibition of mitochondrial respiration results in increased O2^⋅− and other oxidants."}, "[1]": {"test_system": "H2030, PC9, H460, H2030BrM3, PC9BrM3 cells", "test": "Cell viability of lung cancer and brain metastatic lines (Calcein-AM)", "type": "cell-based, human", "text": "Mito-LON treatment causes cell death of human lung cancer and lung cancer-derived brain metastatic cell lines. Paradoxical roles for autophagy in cancer have been reported for the role of autophagy in cancer. Under conditions of nutrient deprivation autophagy induction can promote cell survival; however, in response to other environmental stressors including ROS generation, autophagy can promote cancer cell death. We treated lung cancer lines (H2030, PC9, H460) and lung cancer-derived brain metastatic lines (H2030BrM3, PC9BrM3) with Mito-LON (1.6, 2.0 or 2.4 μM) and measured cell viability at 24 and 48 h."}, "[2]": {"test_system": "H2030 and H2030BrM3 cells", "test": "Autophagy and mitophagy markers in cell lysates, MDC staining", "type": "cell-based, human", "description": "Mito-LON induces autophagic cell death in human lung cancer cell lines and lung-derived brain metastatic lines. To investigate potential mechanisms underlying Mito-LON's induction of cancer cell death that result from its inhibition of mitochondrial respiration and induction of ROS, we analyzed lysates of cells treated with Mito-LON [2.0 μM] for 0, 6, 24 and 48 h. Lysates were probed for proteins targeting energetics, apoptosis and autophagy, including selective mitophagy markers. Our data (FIG. 19) show Mito-LON treatment [2.0 μM] modulates key autophagy proteins, including specific mitophagy receptors, adaptor proteins and energy sensing molecules in H2030 lung cancer cells and the corresponding brain metastatic line (H2030BrM3). LC3, microtubule-associated protein light chain 3, is critical for cargo recruitment. The LC3 precursor is modified via an ubiquitination-like system generating soluble LC3-I, which is further modified to LC3-II, a membrane-bound phospholipid conjugate upon autophagy induction. LC3-II integrates into the autophagosome membrane and is considered a reliable early marker of autophagy induction. Mito-LON treatment (FIG. 19A) increased levels of LC3-II 1.9 to 4.4-fold across cell lines, with sustained modulation through 48 h. The LC3-interacting region (LIR) serves as a mechanistic basis for selective autophagy, including mitophagy which specifically targets degradation of damaged mitochondria via engagement of adaptor proteins (p62, NBR1, OPTN, BNIP3L). We evaluated the effects of Mito-LON on ubiquitin-binding mitophagy receptors (p62, NDP52, NBR1) which also indicate autophagic flux versus potential impairment of autophagosome turnover. […] Changes were consistently bimodal in Mito-LON treated H2030 cells, potentially due to P62's dual role in mitophagy, both in clustering of mitochondria as well as downstream degradation. […] PINK1 was included as an indicator of PINK1-Parkin dependent mitophagy. Basal levels of PINK1 are normally low with increases due to mitochondrial depolarization, damage and ATP alterations, as noted in both cell lines. Beclin1 (BECN1), an autophagy regulator and potential tumor suppressor gene product in multiple cancers, including NSCLC.\nThus, autophagy induction in the lung derived brain metastatic line may be BECN1-independent. […] NRF2, a major regulator of cellular stress responses, was not detectable in either cell line. FIG. 19B further supports autophagy induction by Mito-LON. […] Specifically, Mito-LON alters phosphorylation events and activating partners in parallel. As an example, P-P70S6K^Thr389 phosphorylates mTOR^Ser2448; both reduced in Mito-LON treated cells. Similarly, ULK is activated by AMPK, and both phosphoproteins are decreased by Mito-LON, as is P-PTEN."}, "[3]": {"test_system": "VC-induced lung tumors in A/J mice", "test": "Vinyl carbamate (VC)-induced lung carcinogenesis, post-initiation protocol", "type": "in vivo, mouse", "text": "Preventive efficacy of Mito-LON on vinyl carbamate (VC)-Induced lung carcinogenesis using a post-initiation protocol. We evaluated the preventive efficacy of Mito-LON on the development of VC-induced lung tumors in A/J mice. A post-initiation protocol was used in this study by which administration of Mito-LON was initiated one week after VC. Mito-LON was given via oral gavage at a dose of 15 μmol/kg 5 days/week for 20 weeks."}},
  "note": "“Also recorded” adds a separate entry of the source.",
  "data": [
    {"smiles": "O=C(NCCCCCCCCCC[P+](c1ccccc1)(c1ccccc1)c1ccccc1)c1nn(Cc2ccc(Cl)cc2Cl)c2ccccc12", "note": "[Mito-LON, Mito10-lonidamine]", "values": [
      {"measurement": "IC50", "setting": "Pancreatic cancer cells; Homo sapiens, Pancreatic cancer cell, read-out: IC50, inhibiting the proliferation of cancer cells", "value": 640, "unit": "nM"},
      {"measurement": "fold more effective than LND in anti-proliferative effects", "setting": "Pancreatic cancer cells; pancreatic cancer cells, FIG. 6", "value": "~500", "unit": "fold"},
      {"measurement": "fold more potent than LON for complex II", "setting": "mitochondrial complex II; 24 h pretreatment, FIG. 9B", "value": 144, "unit": "fold"},
      {"measurement": "Ki", "setting": "mitochondrial complex II; FIG. 9", "value": 2700, "unit": "nM"},
      {"measurement": "IC50", "setting": "mitochondrial complex II; H2030BrM3 lung cancer cells, FIG. 9, read-out: IC50, respiratory complex II", "value": 2700, "unit": "nM"},
      {"measurement": "intracellular levels of 2-OH-E+ (superoxide-specific product of HE oxidation)", "setting": "H2030BrM3 cells; 0.2 μM, H2030BrM3 cells", "value": "increase"},
      {"measurement": "formation of diethidium (E+-E+)", "setting": "H2030BrM3 cells; H2030BrM3 cells", "value": "strongly induced"},
      {"measurement": "ROS generation in lung cancer cells", "setting": "H2030BrM3 cells", "value": "stimulates ROS generation; also recorded: induced ROS generation in mitochondria; also recorded: enhanced the formation of 2-hydroxyethidium; also recorded: increased ROS generation"},
      {"measurement": "ROS generation in lung cancer cells", "setting": "H2030BrM3 cells; listed as Mito-LDN", "value": "stimulates ROS generation"},
      {"measurement": "cytotoxicity at 2 µM", "setting": "[1]; Homo sapiens, NCI-H2030, H2030 cells, 2.0 μM, 48 h, Calcein-AM, read-out: reduction of cell viability", "value": "~50", "unit": "%"},
      {"measurement": "LD50, cell viability", "setting": "[1]; lung cancer and brain metastatic lines, 24 and 48 h", "value": 2.0, "unit": "µM"},
      {"measurement": "NDP52", "setting": "[2]; 2.0 μM", "value": "paralleled P62 changes"},
      {"measurement": "Beclin-1 levels", "setting": "[2]; 2.0 μM, H2030 and H2030-BrM3 cells", "value": "increased Beclin-1 levels in H2030 cells but not in H2030-BrM3 cells"},
      {"measurement": "autophagic vacuolization (bright field)", "setting": "[2]; 2.0 μM, H2030 cells", "value": "markedly increased vacuolization"},
      {"measurement": "monodansylcadaverine (MDC) staining", "setting": "[2]; 2.0 μM, H2030 cells", "value": "stained positive for MDC"},
      {"measurement": "P62", "setting": "[2]; 2.0 μM, both cell lines", "value": "modulated P62 in both cell lines"},
      {"measurement": "autophagy-initiating energy-sensing proteins of the AKT/mTOR signaling pathway", "setting": "[2]; FIG. 19C", "value": "deactivates"},
      {"measurement": "RAB7 levels", "setting": "[2]; H2030BrM3 cells", "value": "increased levels of RAB7"},
      {"measurement": "inhibition of VC-induced lung tumor development, total tumor load", "setting": "[3]; 15 μmol/kg oral gavage 5 days/week for 20 weeks, A/J mice", "value": 62, "unit": "%"},
      {"measurement": "body weight changes", "setting": "[3]; 15 μmol/kg oral gavage, 20 weeks", "value": "did not observe any body weight changes"}
    ]}
  ]
}
